The values that follow come from patent US20160166676A1 (priority 2013, published 2016).

In one assay the test system is CTLL-2 cells. It is filed as cell-based.
For assay [1], the system named is BMDCs infected with Influenza A virus. It is filed as cell-based.

For the sequence DRGWGNGCGLFGKG [FLV IS mono/1], the “proliferation of CTLL-2 cells” value with CTLL-2 cells was “has no effect”.
Regarding “GLFGAIAGFIENGWEGCGGEKEKEK [IN F#2 monomer]”, in the assay with CTLL-2 cells, the “effect of mixing the monomer with the dimeric peptide on the suppressive activity of the dimer” value is listed as “completely removes the suppressive activity of the dimers” and the “proliferation of CTLL-2 cells” value is “has no effect”.
Take “GLFGAIAGFIENGWEGGGGEKEKEK [INF F#2 C17G]”: the “interferon response to influenza infection in vitro” value in assay [1] was “enhances the interferon response”.
